Test results from article PMC3207004 (Clinical cancer research : an official journal of the …, 2011).
Blank lines part the entries; values can stand above or below the compound they belong to.

Legend:
[1] = tested on: cultured human retinal pigment epithelial cells (RPE); details: cited from earlier work
NSCLC = details: cited from earlier work
[2] = Plasma pharmacokinetics of PF-04928473 after oral PF-04929113; assay type: in vivo, human

Structure (SMILES): COC1=C2C[C@@H](C)C[C@H](OC)[C@H](O)[C@@H](C)/C=C(\C)[C@H](OC(N)=O)[C@@H](OC)/C=C\C=C(/C)C(=O)NC(=CC1=O)C2=O [geldanamycin]
Effect on cultured human retinal pigment epithelial cells [1]: cytostaticity and cytotoxicity

Structure (SMILES): C=CCNc1c(O)cc2c(O)c1C[C@@H](C)C[C@H](OC)[C@H](O)[C@@H](C)/C=C(\C)[C@H](OC(N)=O)[C@@H](OC)/C=C\C=C(/C)C(=O)N2 [IPI-504]
Objective response (NSCLC; 76 patients with NSCLC): 7% | Objective response, number of patients (NSCLC; 76 patients with NSCLC): 5 patients | Response among 3 patients with ALK rearrangements (NSCLC): 2 PRs and one prolonged SD

Clearance (CL/Fm) ([2]; high value): hepatic and extra-hepatic clearance | Volume of distribution (Vz/Fm) ([2]; high value): extensive tissue binding | half-life ([2]; human, plasma, oral): 8 to 15 h | Dose linearity of pharmacokinetics ([2]; in vivo): almost linear PK | Dose linearity of pharmacokinetics ([2]; in vivo, listed as PF 04928473): almost linear pharmacokinetics | Absorption following oral administration ([2]; patients): rapid absorption | Drug accumulation after multiple dosing ([2]; twice weekly): no drug accumulation
Structure (SMILES): CC1(C)CC(=O)c2c(C(F)(F)F)nn(-c3ccc(C(N)=O)c(N[C@H]4CC[C@H](O)CC4)c3)c2C1 [PF-04928473]
Time span in which active drug was detectable in plasma ([2]; after oral PF-04929113): detectable at 20 minutes through 48 hours | Change of half-life across dose levels ([2]; in vivo): doesn’t appear to change across different dose levels

Structure (SMILES): C=CCNC1=C2C[C@@H](C)C[C@H](OC)[C@H](O)[C@@H](C)/C=C(\C)[C@H](OC(N)=O)[C@@H](OC)/C=C\C=C(/C)C(=O)NC(=CC1=O)C2=O [17-AAG]
Effect on cultured human retinal pigment epithelial cells [1]: cytostaticity and cytotoxicity
